Measurements reported in patent publication US12435067B2, “Truncated itraconazole analogues and methods of use thereof” (University of Connecticut, priority 2019, dated 2025).
≈ marks a conversion by molar mass, not a printed value. Where two headings read alike, the source gives them in different places.

Legend:
[1] = PBS solubility
[2] = Microsomal stability in human liver microsomes; conditions: for half-life / microsomal CLint: human; for half-life / microsomal CLint / Microsomal Stability T1/2 / Microsomal Stability Clint: human liver microsomes; for Microsomal Stability Clint: predicted intrinsic clearance
[3] = tested on: Gli1 mRNA expression in the Hh-dependent murine BCC cell line ASZ001; assay: Hh inhibition: Gli1 mRNA expression in ASZ001 cells (qPCR); type: cell-based; conditions: for IC50: ASZ001 cells
Experimental: In order to continue SAR exploration of this region of the scaffold, efforts sought to synthesize and evaluate analogues that continue the scaffold truncation that was previously probed by removing the phenyl ring on the ‘right side’ of the scaffold and directly appending the 3-phenolic carboxylic acid of 2 to the piperazine amine to provide analogue 3. This analogue was evaluated for its ability to decrease Gli1 mRNA expression in the Hh-dependent murine BCC cell line ASZ001.
(§1) General protocols for cell culture, qPCR, and Hh inhibition in ASZ001 cells, C3H10T1/2 cells, and Sufu^−/− MEFs cells are as previously described (Pace et al. “Repurposing the clinically efficacious antifungal agent itraconazole as an anticancer chemotherapeutic. J. Med. Chem. 2016, 59, 3635-3649; Maschinot et al. “Synthesis and evaluation of third generation vitamin D3 analogues as inhibitors of Hedgehog signaling.” Eur. J. Med. Chem. 2019, 162, 495-506.). HC-04 cells were maintained in Dulbecco's modified Eagle's medium (Gibco Life Technologies) supplemented with 10% heat-inactivated fetal bovine serum (Gibco) and 1% pen-strep (Gibco) at 37° C. in 5% CO2. Cells were split 1:5 every 2-3 days, once they reached ˜80% confluency. Antiproliferation assay against HC-04 cells was using MTS method. The general protocol was the same as described earlier. (Banerjee et al. “Evaluation of vitamin D3 A-ring analogues as hedgehog pathway inhibitors.” Bioorg. Med. Chem. Lett. 2012, 22, pp. 1330-1334.) All data were analyzed with GraphPad Prism 5 and reported values represent the mean±SEM for at least two separate experiments carried out in triplicate for qPCR assay; or performed for at least three separate experiments carried out in quadruplicate for MTS assay.

[4] = tested on: Gli1 mRNA in the Hh-dependent mouse embryonic fibroblast C3H10T1/2 cell line; assay: Gli1 mRNA down-regulation in C3H10T1/2 cells (qPCR); type: cell-based; conditions: Mean ± SEM
Experimental: (§2) Both metabolites retain potent inhibition of Hh signaling (Table 3). […] Based on the improved activity of the truncated analogue 21, which contains approximately half of the intact ITZ scaffold, this analogue was also evaluated in Sufu^−/− mouse embryonic fibroblasts (MEFs) to determine whether Smo is still the most likely target of the metabolite.
as §1

[5] = tested on: Sufu−/− mouse embryonic fibroblasts (MEFs); assay: Hh inhibition in Sufu−/− MEFs; type: cell-based
Experimental: as §2
General protocols for cell culture, qPCR, and Hh inhibition in ASZ001 cells, C3H10T1/2 cells, and Sufu^−/− MEFs cells are as previously described (Pace et al. “Repurposing the clinically efficacious antifungal agent itraconazole as an anticancer chemotherapeutic. J. Med. Chem. 2016, 59, 3635-3649; Maschinot et al. “Synthesis and evaluation of third generation vitamin D3 analogues as inhibitors of Hedgehog signaling.” Eur. J. Med. Chem. 2019, 162, 495-506.). […] (Banerjee et al. “Evaluation of vitamin D3 A-ring analogues as hedgehog pathway inhibitors.” Bioorg. Med. Chem. Lett. 2012, 22, pp. 1330-1334.) All data were analyzed with GraphPad Prism 5 and reported values represent the mean±SEM for at least two separate experiments carried out in triplicate for qPCR assay; or performed for at least three separate experiments carried out in quadruplicate for MTS assay.

[6] = tested on: HC-04 cells; assay: in vitro; type: cell-based, human
Experimental: (§3) The activity for both metabolites prompted a study of their PK profile (Table 3). […] In addition, significant improvements in solubility at pH 7.4 and pH 4.0 compared to ITZ were found for analogue 21. Finally, the general toxicity of compounds 11 and 21 were evaluated by exploring their anti-proliferative activity in HC-04 cells, a human hepatocyte-derived cell line that abundantly expresses drug metabolizing enzymes (Table 5).
as §1

[7] = in vitro; type: cell-based, human; conditions: human
Experimental: as §3, §1

[8] = human, microsomes
[9] = Mus musculus, Gli1 mRNA expression, Mean ± SEM of at least two experiments in triplicate, read-out: ASZ001, IC50
[10] = C3H 10T1/2, Gli1 expression up-regulated by recombinant mouse sonic hedgehog (SHh), read-out: C3H10T1/2, IC50, SHh
[11] = Mus musculus, C3H 10T1/2, Gli1 expression up-regulated by oxysterols (OHCs), read-out: C3H10T1/2, IC50, OHCs
[12] = Gli1 mRNA expression, Mean ± SEM of at least two experiments in triplicate, read-out: ASZ001, IC50

C[C@]1(c2ccc(Cl)cc2Cl)OCC(COc2ccc(N3CCN(C(=O)CCc4ccc(O)c(O)c4)CC3)cc2)O1 (some centres unmarked) [Compound 22]
solubility ([1]; pH 7.4, aqueous buffer): 0.84 µM (≈ 0.494 µg/mL)
half-life [2]: 6.6 min
microsomal CLint [2]: 104.7 ± 0.1 µL/min/mg
IC50 [3, 9]: 89 nM

C[C@]1(c2ccc(Cl)cc2Cl)OC[C@@H](COc2ccc(N3CCN(C(=O)c4cccc(O)c4)CC3)cc2)O1 [Compound 3]
Solubility, PBS pH 4.0 [1]: 0.31 μM
Solubility, PBS pH 7.4 [1]: 0.17 μM
Microsomal Stability T1/2 [2]: 15.9 ± 0.2 min
Microsomal Stability Clint [2]: 43 ± 0.6 µL/min/mg
IC50 [3, 9]: 260 nM

C[C@]1(c2ccc(Cl)cc2Cl)OC[C@@H](COc2ccc(N3CCNCC3)cc2)O1 [Compound 21, 1-(4-(((2S,4R)-2-(2,4-Dichlorophenyl)-2-Methyl-1,3-Dioxolan-4-yl)Methoxy)Phenyl)Piperazine]
Solubility, PBS pH 4.0 [1]: 169.3 μM
Solubility, PBS pH 7.4 [1]: 11.7 μM
IC50 [4, 10]: 1530 ± 200 nM
IC50 [4, 11]: 2700 ± 200 nM
Microsomal Stability T1/2 [2]: 50.7 min
Microsomal Stability Clint [2]: 13.7 ± 0.4 µL/min/mg
anti-Hh activity in Sufu−/− MEFs [5]: completely abolished
IC50 [3, 9]: 22 nM
GI50 ([6]; human): 27300 nM

C[C@]1(c2ccc(Cl)cc2Cl)OC[C@@H](COc2ccc(N3CCN(C(=O)/C=C/c4cccc(O)c4)CC3)cc2)O1 [Compound 12]
IC50 [3, 9]: 220 ± 30 nM
loss in Hh inhibitory activity ([3]; trans-alkene 12 compared with 11, ASZ001): approximately 3 fold

C[C@]1(c2ccc(Cl)cc2Cl)OC[C@@H](COc2ccc(N3CCN(C(=O)c4ccncc4)CC3)cc2)O1 [Compound 7]
IC50 [3, 9]: 570 nM

C[C@]1(c2ccc(Cl)cc2Cl)OCC(COc2ccc(N3CCN(CCCc4cccc(O)c4)CC3)cc2)O1 (some centres unmarked) [Compound 23]
solubility ([1]; pH 4, aqueous buffer): 0.13 µM (≈ 0.0725 µg/mL)
solubility ([1]; pH 7.4, aqueous buffer): 0.02 µM (≈ 0.0112 µg/mL)
half-life [2]: 14 min
microsomal CLint [2]: 50 ± 0.8 µL/min/mg
IC50 [3, 9]: 870 nM

CS(=O)(=O)c1ccc(C(=O)Nc2ccc(Cl)c(-c3ccccn3)c2)c(Cl)c1 [Vismodegib, reference compound]
IC50 [4, 10]: 22 ± 20 nM
IC50 [4, 11]: 10 ± 12 nM
GI50 [7]: > 100000 nM

C[C@]1(c2ccc(Cl)cc2Cl)OC[C@@H](COc2ccc(N3CCN(C(=O)CCCc4ccc(O)cc4)CC3)cc2)O1 [Compound 17, 4-Hydroxy-N-(4-(4-(((2S,4R)-2-(2,4-Dichlorophenyl)-2-Methyl-1,3-Dioxolan-4-yl)Methoxy)Phenyl)Piperazin-1-yl)Phenylbutyric Amide]
IC50 [3, 9]: 470 nM

C[C@]1(c2ccc(Cl)cc2Cl)OC[C@@H](COc2ccc(N3CCN(C(=O)c4ccc([N+](=O)[O-])cc4)CC3)cc2)O1 [Compound 8]
IC50 [3, 9]: 160 nM

C[C@]1(c2ccc(Cl)cc2Cl)OC[C@@H](COc2ccc(N3CCN(C(=O)c4ccc(O)cc4)CC3)cc2)O1 [Compound 4]
IC50 [3, 9]: 580 nM

C[C@]1(c2ccc(Cl)cc2Cl)OC[C@@H](COc2ccc(N3CCN(C(=O)Cc4cccc(O)c4)CC3)cc2)O1 [Compound 10]
Solubility, PBS pH 4.0 [1]: 0.25 μM
Solubility, PBS pH 7.4 [1]: 0.13 μM
more stable (HLM stability) ([2]; 10 compared with 11, human liver microsomes): approximately 6.5 fold
Microsomal Stability T1/2 [2]: 20.4 ± 0.4 min
Microsomal Stability Clint [2]: 33.9 ± 0.6 µL/min/mg
IC50 [3, 9]: 380 ± 40 nM

C[C@]1(c2ccc(Cl)cc2Cl)OC[C@@H](COc2ccc(N3CCN(C(=O)CCc4ccc(O)cc4)CC3)cc2)O1 [Compound 13]
IC50 [3, 9]: 260 ± 30 nM

Itraconazole [ITZ, reference compound]
IC50 ([4]; Gli1 expression up-regulated by oxysterols (OHCs), read-out: C3H10T1/2, IC50, OHCs): 5900 ± 1300 nM
IC50 ([4]; Gli1 expression up-regulated by recombinant mouse sonic hedgehog (SHh), read-out: C3H10T1/2, IC50, SHh): 240 ± 200 nM
Microsomal Stability T1/2 [8]: 27.0 ± 6.2 min
Solubility, PBS pH 7.4: 0.80 μM
IC50 [3, 12]: 140 ± 20 nM
GI50 [6]: > 50000 nM

COc1cccc(CCC(=O)N2CCN(c3ccc(OC[C@@H]4CO[C@](C)(c5ccc(Cl)cc5Cl)O4)cc3)CC2)c1 [Compound 16]
IC50 [3, 9]: 460 nM

C[C@]1(c2ccc(Cl)cc2Cl)OC[C@@H](COc2ccc(N3CCN(C(=O)CCc4ccccc4)CC3)cc2)O1 [Compound 15]
IC50 [3, 9]: 230 nM

N-(4-(4-(((2S,4R)-2-(2,4-Dichlorophenyl)-2-Methyl-1,3-Dioxolan-4-yl)Methoxy)Phenyl)Piperazin-l-yl)-2-((3-hydroxyphenyl)methylene)Hydrazinecarboxamide [Compound 18]
IC50 [3, 12]: 120 nM

N-(4-(4-(((2S,4R)-2-(2,4-Dichlorophenyl)-2-Methyl-1,3-Dioxolan-4-yl)Methoxy)Phenyl)Piperazin-l-yl)-2-((4-hydroxyphenyl)methylene)Hydrazinecarboxamide [Compound 19]
Microsomal Stability T1/2 [8]: 11.4 ± 0.2 min
Solubility, PBS pH 4.0 (pH 4): 0.05 μM
Solubility, PBS pH 7.4: 0.02 μM
IC50 [3, 12]: 960 nM

C[C@]1(c2ccc(Cl)cc2Cl)OC[C@@H](COc2ccc(N3CCN(C(=O)c4ccccn4)CC3)cc2)O1 [Compound 5]
IC50 [3, 9]: 1420 ± 300 nM

C[C@]1(c2ccc(Cl)cc2Cl)OC[C@@H](COc2ccc(N3CCN(C(=O)c4cccnc4)CC3)cc2)O1 [Compound 6]
IC50 [3, 9]: 1300 ± 310 nM

C[C@@]1(c2ccc(Cl)cc2Cl)OCC(COc2ccc(N3CCN(C(=O)N/N=C/c4cccc(O)c4)CC3)cc2)O1 (some centres unmarked) [Compound 20]
less active (Hh inhibition) ([3]; 2R,4R-trans 20 compared with cis 18, ASZ001): approximately 5 fold
IC50 [3, 9]: 580 nM

C[C@]1(c2ccc(Cl)cc2Cl)OC[C@@H](COc2ccc(N3CCN(C(=O)CCc4cccc(O)c4)CC3)cc2)O1 [Compound 11]
Solubility, PBS pH 4.0 [1]: 0.13 μM
Solubility, PBS pH 7.4 [1]: 0.03 μM
IC50 [4, 10]: 170 ± 90 nM
IC50 [4, 11]: 650 ± 70 nM
Microsomal Stability T1/2 [2]: 3.2 min
Microsomal Stability Clint [2]: 218 ± 9.7 µL/min/mg
IC50 ([3]; Mus musculus, read-out: IC50 value (anti-Hh activity)): 81 nM
IC50 [3, 9]: 81 nM
GI50 [7]: 13200 ± 500 nM
GI50 ([6]; human): 13200 nM

C[C@]1(c2ccc(Cl)cc2Cl)OC[C@@H](COc2ccc(N3CCN(C(=O)/C=C/c4ccc(O)cc4)CC3)cc2)O1 [Compound 14, 4-Hydroxy-N-(4-(4-(((2S,4R)-2-(2,4-Dichlorophenyl)-2-Methyl-1,3-Dioxolan-4-yl)Methoxy)Phenyl)Piperazin-1-yl)Cinnamamide]
IC50 [3, 9]: 360 ± 50 nM

C[C@]1(c2ccc(Cl)cc2Cl)OC[C@@H](COc2ccc(N3CCN(C(=O)c4ccc(N)cc4)CC3)cc2)O1 [Compound 9]
IC50 [3, 9]: 280 nM
